Our source for the T/C values is PubChem BioAssay AID328 (DTP/NCI, 2004).

Several values for one entry are separate records, joined by “and”; a condition that tells them apart may be missing. Identical values can stand only once. Toxic doses and inconclusive results are not listed.

This assay has as its system BDF1 mice, P388 leukemia ip, median survival T/C. The assay can be described thus: NCI In Vivo Anticancer Drug Screen. Data for tumor model P388 Leukemia (intraperitoneal) in B6D2F1 (BDF1) mice. The note with it: endpoint: median survival time, higher = longer survival. In a few lines: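 Mice carrying the transplantable tumour receive compound or vehicle. Survival is followed in each arm, and the treated measure is divided by the vehicle measure.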

Setting [1] is: dose: 100.0 mg/kg/injection, schedule: Q04DX003 (ip), vehicle: saline with Tween-80.
[2] abbreviates: dose: 100.0 mg/kg/injection, schedule: Q04DX003 (ip), vehicle: saline.
Where [3] appears, read: dose: 200.0 mg/kg/injection, schedule: Q04DX003 (ip), vehicle: saline.
Where [4] appears, read: dose: 50.0 mg/kg/injection, schedule: Q01DX009 (ip), vehicle: saline with Tween-80.
Where [5] appears, read: dose: 100.0 mg/kg/injection, schedule: Q01DX009 (ip), vehicle: saline with Tween-80.
Setting [6] is: dose: 200.0 mg/kg/injection, schedule: Q01DX009 (ip), vehicle: Klucel (hydroxypropylcellulose) (HPC).
Setting [7] is: dose: 200.0 mg/kg/injection, schedule: Q01DX009 (ip), vehicle: saline with Tween-80.
Where [8] appears, read: dose: 50.0 mg/kg/injection, schedule: Q01DX009 (ip), vehicle: saline.
The mark [9] stands for this setting: dose: 100.0 mg/kg/injection, schedule: Q01DX009 (ip), vehicle: saline.
Where [10] appears, read: dose: 100.0 mg/kg/injection, schedule: Q01DX009 (ip), vehicle: Klucel (hydroxypropylcellulose) (HPC).

For `OCCC1(CCO)CCCCC1`, the T/C runs as follows: (dose: 10.0 mg/kg/injection, schedule: Q01DX009 (ip), vehicle: saline with Tween-80) 100 % of control; (dose: 20.0 mg/kg/injection, schedule: Q01DX009 (ip), vehicle: saline with Tween-80) 105 % of control; (dose: 40.0 mg/kg/injection, schedule: Q01DX009 (ip), vehicle: saline with Tween-80) 110 % of control; (dose: 50.0 mg/kg/injection, schedule: Q04DX003 (ip), vehicle: saline with Tween-80) 109 % of control; under setting [1], 100 % of control.
For `Nc1ccc2c(-c3ccccc3)cc(NCCCN3CCOCC3)nc2n1`, the T/C runs as follows: under setting [2], 104 % of control; under setting [3], 100 % of control.
Turning to `CC(=O)Nc1ccc2c(c1)C(N)c1ccccc1-2` (stereo not given), the T/C was 100 % of control under setting [4]; 104 % of control under setting [5]; 95 % of control (dose: 133.0 mg/kg/injection, schedule: Q01DX009 (ip), vehicle: Klucel (hydroxypropylcellulose) (HPC)); 105 % of control under setting [6]; 87 % of control under setting [7]; 100 % of control (dose: 300.0 mg/kg/injection, schedule: Q01DX009 (ip), vehicle: Klucel (hydroxypropylcellulose) (HPC)).
As to `COC(=O)C1=C(C)N[C@@]2(C)[C@H](C(=O)OC)C[C@H]1C2(C(C)=O)C(C)=O`, the T/C by setting is: under setting [4], 116 % of control; under setting [5], 109 % of control; under setting [7], 109 % of control.
Consider `CCc1nc(N)nc(N)c1-c1ccc(Cl)c(Cl)c1`, for which the T/C was 110 % of control (dose: 6.25 mg/kg/injection, schedule: Q01DX010 (ip), vehicle: carboxymethylcellulose (CMC)); 90 % of control (dose: 8.0 mg/kg/injection, schedule: Q01DX009 (sc), vehicle: Klucel (hydroxypropylcellulose) (HPC)); 90 % of control (dose: 8.0 mg/kg/injection, schedule: Q03HX024 (ip), vehicle: Klucel (hydroxypropylcellulose) (HPC)); 100 % of control (dose: 12.5 mg/kg/injection, schedule: Q01DX010 (ip), vehicle: carboxymethylcellulose (CMC)); 90 % of control (dose: 25.0 mg/kg/injection, schedule: Q01DX010 (ip), vehicle: carboxymethylcellulose (CMC)); 163 % of control (dose: 32.0 mg/kg/injection, schedule: Q04DX003 (ip), vehicle: Klucel (hydroxypropylcellulose) (HPC)). The T/C by setting is: (dose: 64.0 mg/kg/injection, schedule: Q08DX002 (ip), vehicle: Klucel (hydroxypropylcellulose) (HPC)) 86 % of control; (dose: 128.0 mg/kg/injection, schedule: Q01DX001 (sc), vehicle: Klucel (hydroxypropylcellulose) (HPC)) 100 % of control; (dose: 128.0 mg/kg/injection, schedule: Q08DX002 (ip), vehicle: Klucel (hydroxypropylcellulose) (HPC)) 86 % of control.
For the molecule `CC(=O)OCc1ccc(-n2c(C(F)(F)F)nc3nc(Cl)c(Cl)nc32)o1`, the T/C under setting [8] was 100 % of control; the T/C (dose: 50.0 mg/kg/injection, schedule: Q04DX003 (ip), vehicle: saline) was 108 % of control; the T/C under setting [9] was 107 % of control; the T/C under setting [2] was 103 % of control; the T/C under setting [3] was 101 % of control; the T/C (dose: 400.0 mg/kg/injection, schedule: Q04DX003 (ip), vehicle: saline) is 100 % of control.
In the case of `Cc1ncnc2c1CCC2`, the T/C is 97 % of control under setting [4]; 111 % of control under setting [5]; 109 % of control under setting [1]; 87 % of control under setting [7]; 95 % of control (dose: 200.0 mg/kg/injection, schedule: Q04DX003 (ip), vehicle: saline with Tween-80).
As for `COc1ccc(C2=C/C(=C3\C(=O)Oc4ccccc4C3=O)SS2)cc1`, the T/C under setting [4] is 90 % of control, the T/C under setting [5] is 92 % of control and the T/C under setting [7] was 90 % of control.
Turning to `CC(CN1c2ccccc2Sc2ccccc21)N(C)C` (stereo not given), the T/C reads like this: (dose: 18.75 mg/kg/injection, schedule: Q01DX009 (ip), vehicle: saline) 100 % of control; (dose: 37.5 mg/kg/injection, schedule: Q04DX003 (ip), vehicle: saline) 121 % of control; (dose: 75.0 mg/kg/injection, schedule: Q04DX003 (ip), vehicle: saline) 117 % of control; (dose: 150.0 mg/kg/injection, schedule: Q04DX003 (ip), vehicle: saline) 95 % of control.
As for `COc1ccc(C(=O)c2cc(OC)c(OC)c(OC)c2)cc1OC`, the T/C runs as follows: under setting [10], 92 % of control; under setting [9], 109 % of control; (dose: 100.0 mg/kg/injection, schedule: Q04DX003 (ip), vehicle: Klucel (hydroxypropylcellulose) (HPC)) 95 % of control; under setting [6], 107 % of control; (dose: 200.0 mg/kg/injection, schedule: Q01DX009 (ip), vehicle: saline) 113 % of control; (dose: 200.0 mg/kg/injection, schedule: Q04DX003 (ip), vehicle: Klucel (hydroxypropylcellulose) (HPC)) 104 % of control. In addition, the T/C was 107 % of control (dose: 400.0 mg/kg/injection, schedule: Q01DX009 (ip), vehicle: Klucel (hydroxypropylcellulose) (HPC)); 122 % of control (dose: 400.0 mg/kg/injection, schedule: Q01DX009 (ip), vehicle: saline); 95 % of control (dose: 400.0 mg/kg/injection, schedule: Q04DX003 (ip), vehicle: Klucel (hydroxypropylcellulose) (HPC)).
`S=C1SC(c2ccccc2)(c2ccccc2)c2ccccc21`: the T/C by setting is: (dose: 100.0 mg/kg/injection, schedule: Q01DX001 (ip), vehicle: saline with Tween-80) 100 % of control; (dose: 200.0 mg/kg/injection, schedule: Q01DX001 (ip), vehicle: saline with Tween-80) 94 % of control; (dose: 400.0 mg/kg/injection, schedule: Q01DX001 (ip), vehicle: saline with Tween-80) 93 % of control.
As to `Cc1ccc(NC(=S)NNC(=S)NNc2ccccc2)cc1C`, the T/C under setting [10] is 115 % of control and the T/C under setting [6] was 120 % of control.
In the case of `O=C1/C(=C\c2ccccc2)C(Br)c2ccccc21` (stereo not given), the T/C was 87 % of control (dose: 1.56 mg/kg/injection, schedule: Q01DX009 (ip), vehicle: water); 108 % of control (dose: 3.12 mg/kg/injection, schedule: Q01DX009 (ip), vehicle: water); 108 % of control (dose: 6.25 mg/kg/injection, schedule: Q01DX009 (ip), vehicle: water); 100 % of control (dose: 6.25 mg/kg/injection, schedule: Q04DX003 (ip), vehicle: water); 110 % of control (dose: 12.5 mg/kg/injection, schedule: Q01DX009 (ip), vehicle: water); 105 % of control (dose: 12.5 mg/kg/injection, schedule: Q04DX003 (ip), vehicle: water). In addition, the T/C (dose: 25.0 mg/kg/injection, schedule: Q01DX009 (ip), vehicle: water) was 110 % of control; the T/C (dose: 25.0 mg/kg/injection, schedule: Q04DX003 (ip), vehicle: water) was 105 % of control; the T/C (dose: 50.0 mg/kg/injection, schedule: Q04DX003 (ip), vehicle: water) was 91 % of control.
Take `CS(=O)(=O)OCCC#N`: the T/C is 113 % of control (dose: 25.0 mg/kg/injection, schedule: Q01DX009 (ip), vehicle: saline); 91 % of control and 104 % of control under setting [8]; 113 % of control under setting [9]; 110 % of control (dose: 100.0 mg/kg/injection, schedule: Q04DX003 (ip), vehicle: alcohol); 95 % of control (dose: 150.0 mg/kg/injection, schedule: Q01DX009 (ip), vehicle: saline).
With `CC(=N\O)/C(C)=N/O.CC(=N\O)/C(C)=N/O.[Pd]`, the T/C runs as follows: (dose: 1.57 mg/kg/injection, schedule: Q01DX009 (ip), vehicle: Klucel (hydroxypropylcellulose) (HPC)) 100 % of control; (dose: 3.13 mg/kg/injection, schedule: Q01DX009 (ip), vehicle: Klucel (hydroxypropylcellulose) (HPC)) 100 % of control; (dose: 6.25 mg/kg/injection, schedule: Q01DX009 (ip), vehicle: Klucel (hydroxypropylcellulose) (HPC)) 100 % of control.
For `CN1CCC(C(c2ccccc2)c2ccccc2)C1` (stereo not given), the T/C (dose: 50.0 mg/kg/injection, schedule: Q01DX009 (ip), vehicle: Klucel (hydroxypropylcellulose) (HPC)) is 109 % of control.
